ChEMBL document CHEMBL4311999, “3-Hydrazinoisatin-based benzenesulfonamides as novel carbonic anhydrase inhibitors endowed with anticancer activity: Synthesis, in vitro biological evaluation and in silico insights” (Eur J Med Chem, 2019)
One block for each compound: values may come before it.

Tests used:
Carbonic anhydrase 1 = Carbonic anhydrase 1 (Homo sapiens, UniProt P00915); assay: Inhibition of recombinant human carbonic anhydrase 1 preincubated for 15 mins by phenol red dye based stopped flow CO2 hydration assay
Sequence of Carbonic anhydrase 1 (P00915 whole entry): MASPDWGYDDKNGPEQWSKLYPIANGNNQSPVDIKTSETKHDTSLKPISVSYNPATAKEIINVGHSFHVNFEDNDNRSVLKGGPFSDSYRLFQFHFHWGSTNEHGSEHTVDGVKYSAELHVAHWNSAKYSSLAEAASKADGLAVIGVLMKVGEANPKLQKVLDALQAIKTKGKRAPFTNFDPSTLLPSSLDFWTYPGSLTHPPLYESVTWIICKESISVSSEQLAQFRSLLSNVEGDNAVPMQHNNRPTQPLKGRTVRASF

Carbonic anhydrase 2 = Carbonic anhydrase 2 (Homo sapiens, UniProt P00918); assay: Inhibition of recombinant human carbonic anhydrase 2 preincubated for 15 mins by phenol red dye based stopped flow CO2 hydration assay
Carbonic anhydrase 9 = Carbonic anhydrase 9 (Homo sapiens, UniProt Q16790); assay: Inhibition of recombinant human carbonic anhydrase 9 preincubated for 15 mins by phenol red dye based stopped flow CO2 hydration assay
K562 = assay: Growth inhibition of human K562 cells at 10 uM incubated for 48 hrs by sulforhodamine B assay relative to control; assay type: functional; conditions: K562, 48 h, read-out: GI
MOLT-4 = assay: Growth inhibition of human MOLT4 cells at 10 uM incubated for 48 hrs by sulforhodamine B assay relative to control; assay type: functional; conditions: MOLT-4, 48 h, read-out: GI
SR = assay: Growth inhibition of human SR cells at 10 uM incubated for 48 hrs by sulforhodamine B assay relative to control; assay type: functional; conditions: read-out: GI
A549 = assay: Growth inhibition of human A549/ATCC cells at 10 uM incubated for 48 hrs by sulforhodamine B assay relative to control; assay type: functional; conditions: A549, 48 h, read-out: GI
NCI-H226 = assay: Growth inhibition of human NCI-H226 cells at 10 uM incubated for 48 hrs by sulforhodamine B assay relative to control; assay type: functional; conditions: NCI-H226, 48 h, read-out: GI
HOP-62 = assay: Growth inhibition of human HOP62 cells at 10 uM incubated for 48 hrs by sulforhodamine B assay relative to control; assay type: functional; conditions: HOP-62, 48 h, read-out: GI
NCI-H322M = assay: Growth inhibition of human NCI-H322M cells at 10 uM incubated for 48 hrs by sulforhodamine B assay relative to control; assay type: functional; conditions: read-out: GI
HCT-116 = assay: Growth inhibition of human HCT116 cells at 10 uM incubated for 48 hrs by sulforhodamine B assay relative to control; assay type: functional; conditions: HCT-116, 48 h, read-out: GI
HCT-15 = assay: Growth inhibition of human HCT15 cells at 10 uM incubated for 48 hrs by sulforhodamine B assay relative to control; assay type: functional; conditions: HCT-15, 48 h, read-out: GI
SNB-75 = assay: Growth inhibition of human SNB75 cells at 10 uM incubated for 48 hrs by sulforhodamine B assay relative to control; assay type: functional; conditions: SNB-75, 48 h, read-out: GI
SW-620 = assay: Growth inhibition of human SW620 cells at 10 uM incubated for 48 hrs by sulforhodamine B assay relative to control; assay type: functional; conditions: SW-620, 48 h, read-out: GI
SF-539 = assay: Growth inhibition of human SF539 cells at 10 uM incubated for 48 hrs by sulforhodamine B assay relative to control; assay type: functional; conditions: SF-539, 48 h, read-out: GI
U-251 = assay: Growth inhibition of human U251 cells at 10 uM incubated for 48 hrs by sulforhodamine B assay relative to control; assay type: functional; conditions: U-251, 48 h, read-out: GI
M14 = assay: Growth inhibition of human M14 cells at 10 uM incubated for 48 hrs by sulforhodamine B assay relative to control; assay type: functional; conditions: M14, 48 h, read-out: GI
MDA-MB-231 = assay: Growth inhibition of human MDA-MB-231 cells at 10 uM incubated for 48 hrs by sulforhodamine B assay relative to control; assay type: functional; conditions: MDA-MB-231, 48 h, read-out: GI
MCF7 = assay: Growth inhibition of human MCF7 cells at 10 uM incubated for 48 hrs by sulforhodamine B assay relative to control; assay type: functional; conditions: MCF7, 48 h, read-out: GI
DU-145 = assay: Growth inhibition of human DU145 cells at 10 uM incubated for 48 hrs by sulforhodamine B assay relative to control; assay type: functional; conditions: DU-145, 48 h, read-out: GI
UO-31 = assay: Growth inhibition of human UO31 cells at 10 uM incubated for 48 hrs by sulforhodamine B assay relative to control; assay type: functional; conditions: UO-31, 48 h, read-out: GI
PC-3 = assay: Growth inhibition of human PC3 cells at 10 uM incubated for 48 hrs by sulforhodamine B assay relative to control; assay type: functional; conditions: PC-3, 48 h, read-out: GI
SN12C = assay: Growth inhibition of human SN12C cells at 10 uM incubated for 48 hrs by sulforhodamine B assay relative to control; assay type: functional; conditions: read-out: GI
CAKI-1 = assay: Growth inhibition of human Caki1 cells at 10 uM incubated for 48 hrs by sulforhodamine B assay relative to control; assay type: functional; conditions: CAKI-1, 48 h, read-out: GI
ACHN = assay: Growth inhibition of human ACHN cells at 10 uM incubated for 48 hrs by sulforhodamine B assay relative to control; assay type: functional; conditions: read-out: GI
SK-OV-3 = assay: Growth inhibition of human SKOV3 cells at 10 uM incubated for 48 hrs by sulforhodamine B assay relative to control; assay type: functional; conditions: SK-OV-3, 48 h, read-out: GI
OVCAR-8 = assay: Growth inhibition of human OVCAR8 cells at 10 uM incubated for 48 hrs by sulforhodamine B assay relative to control; assay type: functional; conditions: OVCAR-8, 48 h, read-out: GI
NCI/ADR-RES = assay: Growth inhibition of human NCI/ADR-RES cells at 10 uM incubated for 48 hrs by sulforhodamine B assay relative to control; assay type: functional; conditions: read-out: GI
OVCAR-5 = assay: Growth inhibition of human OVCAR5 cells at 10 uM incubated for 48 hrs by sulforhodamine B assay relative to control; assay type: functional; conditions: OVCAR-5, 48 h, read-out: GI
OVCAR-3 = assay: Growth inhibition of human OVCAR3 cells at 10 uM incubated for 48 hrs by sulforhodamine B assay relative to control; assay type: functional; conditions: OVCAR-3, 48 h, read-out: GI
OVCAR-4 = assay: Growth inhibition of human OVCAR4 cells at 10 uM incubated for 48 hrs by sulforhodamine B assay relative to control; assay type: functional; conditions: OVCAR-4, 48 h, read-out: GI
IGROV-1 = assay: Growth inhibition of human IGROV1 cells at 10 uM incubated for 48 hrs by sulforhodamine B assay relative to control; assay type: functional; conditions: IGROV-1, 48 h, read-out: GI
Hs-578T = assay: Growth inhibition of human Hs 578T cells at 10 uM incubated for 48 hrs by sulforhodamine B assay relative to control; assay type: functional; conditions: read-out: GI
T47D = assay: Growth inhibition of human T47D cells at 10 uM incubated for 48 hrs by sulforhodamine B assay relative to control; assay type: functional; conditions: read-out: GI
CDK9/cyclin T1 = CDK9/cyclin T1 (Homo sapiens, UniProt P50750); assay: Inhibition of human full length N-terminal GST-HIS6 fused CDK9 (M1 to F372 residues)/N-terminal HIS6-fused Cyclin-T1 (M1 to K726 residues) co-expressed in Sf9 cells using (YSPTSPS)2KK as substrate in presence of [gamma33P]ATP
Sequence of CDK9/cyclin T1 (O60563 whole entry, the tested form may be a part): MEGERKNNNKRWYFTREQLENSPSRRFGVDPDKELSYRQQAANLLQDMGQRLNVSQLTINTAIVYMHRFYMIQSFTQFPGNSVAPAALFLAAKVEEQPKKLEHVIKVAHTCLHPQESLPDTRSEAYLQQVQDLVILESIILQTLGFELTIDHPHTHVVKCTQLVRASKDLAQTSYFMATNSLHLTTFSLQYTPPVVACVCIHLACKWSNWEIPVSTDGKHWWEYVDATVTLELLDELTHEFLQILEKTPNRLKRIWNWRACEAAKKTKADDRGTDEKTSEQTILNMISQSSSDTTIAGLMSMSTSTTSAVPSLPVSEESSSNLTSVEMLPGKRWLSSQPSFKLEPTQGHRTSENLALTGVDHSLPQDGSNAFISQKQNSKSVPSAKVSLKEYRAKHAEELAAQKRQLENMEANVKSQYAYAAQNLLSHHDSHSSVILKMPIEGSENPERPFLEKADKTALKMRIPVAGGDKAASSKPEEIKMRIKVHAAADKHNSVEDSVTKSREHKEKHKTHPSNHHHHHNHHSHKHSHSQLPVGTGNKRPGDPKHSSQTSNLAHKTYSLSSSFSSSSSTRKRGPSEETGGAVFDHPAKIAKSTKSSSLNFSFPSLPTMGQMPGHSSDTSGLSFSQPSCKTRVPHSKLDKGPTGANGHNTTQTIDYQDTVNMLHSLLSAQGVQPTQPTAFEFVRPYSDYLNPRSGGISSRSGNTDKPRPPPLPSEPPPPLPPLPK
Sequence of CDK9/cyclin T1 (P50750 whole entry, the tested form may be a part): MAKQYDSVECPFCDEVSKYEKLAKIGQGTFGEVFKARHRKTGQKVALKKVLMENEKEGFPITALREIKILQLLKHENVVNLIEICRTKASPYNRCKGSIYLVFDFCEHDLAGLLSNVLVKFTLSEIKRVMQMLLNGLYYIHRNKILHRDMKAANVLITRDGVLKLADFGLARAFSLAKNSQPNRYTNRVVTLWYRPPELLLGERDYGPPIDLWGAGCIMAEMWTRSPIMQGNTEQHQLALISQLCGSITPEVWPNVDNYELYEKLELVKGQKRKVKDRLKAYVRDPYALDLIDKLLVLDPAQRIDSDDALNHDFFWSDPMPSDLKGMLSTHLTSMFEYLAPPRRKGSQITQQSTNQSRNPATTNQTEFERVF

[1] = target: Cyclin-dependent kinase 2/cyclin E1 (Homo sapiens, UniProt P24941); assay: Inhibition of human recombinant CDK2/Cyclin E expressed in baculovirus infected Sf9 cells using histone H1 substrate in presence of [gamma33P]ATP

Ki (Carbonic anhydrase 1): 4830 nM
Ki (Carbonic anhydrase 2): 52.7 nM
Ki (Carbonic anhydrase 9): 19.6 nM
IC50 (CDK9/cyclin T1): > 10000 nM
IC50 [1]: > 10000 nM
Compound: NS(=O)(=O)c1ccc(N/N=C2\C(=O)N(Cc3ccccc3)c3ccc(Cl)cc32)cc1
inhibition of growth at 10 µM (K562): 18%
inhibition of growth at 10 µM (MOLT-4): 28%
inhibition of growth at 10 µM (SR): 40%
inhibition of growth at 10 µM (A549): 17%
inhibition of growth at 10 µM (NCI-H226): 66%
inhibition of growth at 10 µM (HOP-62): 36%
inhibition of growth at 10 µM (NCI-H322M): 16%
inhibition of growth at 10 µM (HCT-116): 31%
inhibition of growth at 10 µM (HCT-15): 11%
inhibition of growth at 10 µM (SNB-75): 22%
inhibition of growth at 10 µM (SW-620): 20%
inhibition of growth at 10 µM (SF-539): 39%
inhibition of growth at 10 µM (U-251): 18%
inhibition of growth at 10 µM (M14): 12%
inhibition of growth at 10 µM (MDA-MB-231): 24%
inhibition of growth at 10 µM (MCF7): 25%
inhibition of growth at 10 µM (DU-145): 13%
inhibition of growth at 10 µM (UO-31): 19%
inhibition of growth at 10 µM (PC-3): 16%
inhibition of growth at 10 µM (SN12C): 13%
inhibition of growth at 10 µM (CAKI-1): 36%
inhibition of growth at 10 µM (ACHN): 35%
inhibition of growth at 10 µM (SK-OV-3): 26%
inhibition of growth at 10 µM (OVCAR-8): 35%
inhibition of growth at 10 µM (NCI/ADR-RES): 18%
inhibition of growth at 10 µM (OVCAR-5): 13%
inhibition of growth at 10 µM (OVCAR-3): 11%
inhibition of growth at 10 µM (OVCAR-4): 71%
inhibition of growth at 10 µM (IGROV-1): 16%
inhibition of growth at 10 µM (Hs-578T): 55%
inhibition of growth at 10 µM (T47D): 21%

Ki (Carbonic anhydrase 1): > 10000 nM
Ki (Carbonic anhydrase 2): 630 nM
Ki (Carbonic anhydrase 9): 65.4 nM
IC50 (CDK9/cyclin T1): > 10000 nM
IC50 [1]: > 10000 nM
Compound: CCOC(=O)CN1C(=O)/C(=N\Nc2ccc(S(N)(=O)=O)cc2)c2cc(Br)ccc21
inhibition of growth at 10 µM (K562): 35%
inhibition of growth at 10 µM (MOLT-4): 23%
inhibition of growth at 10 µM (SR): 25%
inhibition of growth at 10 µM (A549): 69%
inhibition of growth at 10 µM (NCI-H226): 14%
inhibition of growth at 10 µM (HOP-62): 35%
inhibition of growth at 10 µM (NCI-H322M): 23%
inhibition of growth at 10 µM (HCT-116): 86%
inhibition of growth at 10 µM (HCT-15): 15%
inhibition of growth at 10 µM (SNB-75): 22%
inhibition of growth at 10 µM (SW-620): 37%
inhibition of growth at 10 µM (SF-539): 84%
inhibition of growth at 10 µM (U-251): 14%
inhibition of growth at 10 µM (M14): 12%
inhibition of growth at 10 µM (MDA-MB-231): 33%
inhibition of growth at 10 µM (MCF7): 16%
inhibition of growth at 10 µM (DU-145): 21%
inhibition of growth at 10 µM (UO-31): 13%
inhibition of growth at 10 µM (PC-3): 29%
inhibition of growth at 10 µM (SN12C): 12%
inhibition of growth at 10 µM (CAKI-1): 14%
inhibition of growth at 10 µM (ACHN): 15%
inhibition of growth at 10 µM (SK-OV-3): 18%
inhibition of growth at 10 µM (OVCAR-8): 44%
inhibition of growth at 10 µM (NCI/ADR-RES): 10%
inhibition of growth at 10 µM (OVCAR-5): 14%
inhibition of growth at 10 µM (OVCAR-3): 15%
inhibition of growth at 10 µM (OVCAR-4): 69%
inhibition of growth at 10 µM (IGROV-1): 27%
inhibition of growth at 10 µM (Hs-578T): 10%
inhibition of growth at 10 µM (T47D): 22%
